System: Phytophthora infestans
Assay: microbe, parasite or virus in culture
Assay type: cell-based
Conditions: in Secale cereale, 168 h, read-out: control compared to the untreated check

SMILES | inhibition of growth at 30 ppm
COc1cncnc1OCC(=O)N1CCC(c2nc(C3=NOC(c4c(Cl)cccc4OS(C)(=O)=O)C3)cs2)CC1 (stereo not drawn) [Compound 72, 3-chloro-2-(3-(2-(1-(2-((5-methoxypyrimidin-4-yl)oxy)acetyl)piperidin-4-yl)thiazol-4-yl)-4,5-dihydroisoxazol-5-yl)phenyl methanesulfonate] | ≥ 70%
COc1nccnc1OCC(=O)N1CCC(c2nc(C3=NOC(c4c(Cl)cc(Cl)cc4Cl)C3)cs2)CC1 (stereo not drawn) [Compound 24, 2-((3-methoxypyrazin-2-yl)oxy)-1-(4-(4-(5-(2,4,6-trichlorophenyl)-4,5-dihydroisoxazol-3-yl)thiazol-2-yl)piperidin-1-yl)ethan-1-one] | ≥ 70%
O=C(COc1ccnc(C(F)(F)F)n1)N1CCC(c2nc(C3=NOC(c4c(Cl)cc(Cl)cc4Cl)C3)cs2)CC1 (stereo not drawn) [Compound 19, 1-(4-(4-(5-(2,4,6-trichlorophenyl)-4,5-dihydroisoxazol-3-yl)thiazol-2-yl)piperidin-1-yl)-2-((2-(trifluoromethyl)pyrimidin-4-yl)oxy)ethan-1-one] | ≥ 70%
O=C(COc1cncc(C(F)(F)F)n1)N1CCC(c2nc(C3=NOC(c4c(F)cccc4Cl)C3)cs2)CC1 (stereo not drawn) [Compound 53, 1-(4-(4-(5-(2-chloro-6-fluorophenyl)-4,5-dihydroisoxazol-3-yl)thiazol-2-yl)piperidin-1-yl)-2-((6-(trifluoromethyl)pyrazin-2-yl)oxy)ethan-1-one] | ≥ 70%
CSc1nccnc1OCC(=O)N1CCC(c2nc(C3=NOC(c4c(Cl)cccc4C#N)C3)cs2)CC1 (stereo not drawn) [Compound 146, 3-chloro-2-(3-(2-(1-(2-((3-(methylthio)pyrazin-2-yl)oxy)acetyl)piperidin-4-yl)thiazol-4-yl)-4,5-dihydroisoxazol-5-yl)benzonitrile] | ≥ 70%
COc1nc(OC)nc(OCC(=O)N2CCC(c3nc(C4=NOC(c5c(Cl)cccc5Cl)C4)cs3)CC2)n1 (stereo not drawn) [Compound 106, 1-(4-(4-(5-(2,6-dichlorophenyl)-4,5-dihydroisoxazol-3-yl)thiazol-2-yl)piperidin-1-yl)-2-((4,6-dimethoxy-1,3,5-triazin-2-yl)oxy)ethan-1-one] | ≥ 70%
COc1cncc(OCC(=O)N2CCC(c3nc(C4=NOC(c5c(F)cccc5F)C4)cs3)CC2)n1 (stereo not drawn) [Compound 119, 1-(4-(4-(5-(2,6-difluorophenyl)-4,5-dihydroisoxazol-3-yl)thiazol-2-yl)piperidin-1-yl)-2-((6-methoxypyrazin-2-yl)oxy)ethan-1-one] | ≥ 70%
COc1cncnc1OCC(=O)N1CCC(c2nc(C3=NOC(c4c(Cl)cccc4C#N)C3)cs2)CC1 (stereo not drawn) [Compound 71, 3-chloro-2-(3-(2-(1-(2-((5-methoxypyrimidin-4-yl)oxy)acetyl)piperidin-4-yl)thiazol-4-yl)-4,5-dihydroisoxazol-5-yl)benzonitrile] | ≥ 70%
O=C(COc1cnc(C(F)(F)F)cn1)N1CCC(c2nc(C3=NOC(c4c(Cl)cccc4C(F)(F)F)C3)cs2)CC1 (stereo not drawn) [Compound 69, 1-(4-(4-(5-(2-chloro-6-(trifluoromethyl)phenyl)-4,5-dihydroisoxazol-3-yl)thiazol-2-yl)piperidin-1-yl)-2-((5-(trifluoromethyl)pyrazin-2-yl)oxy)ethan-1-one] | ≥ 70%
O=C(COc1ccc(C(F)(F)F)nn1)N1CCC(c2nc(C3=NOC(c4c(Cl)cccc4C(F)(F)F)C3)cs2)CC1 (stereo not drawn) [Compound 66, 1-(4-(4-(5-(2-chloro-6-(trifluoromethyl)phenyl)-4,5-dihydroisoxazol-3-yl)thiazol-2-yl)piperidin-1-yl)-2-((6-(trifluoromethyl)pyridazin-3-yl)oxy)ethan-1-one] | ≥ 70%
COc1cncc(OCC(=O)N2CCC(c3nc(C4=NOC(c5c(Cl)cccc5OS(C)(=O)=O)C4)cs3)CC2)n1 (stereo not drawn) [Compound 103, 3-chloro-2-(3-(2-(1-(2-((6-methoxypyrazin-2-yl)oxy)acetyl)piperidin-4-yl)thiazol-4-yl)-4,5-dihydroisoxazol-5-yl)phenyl methanesulfonate] | ≥ 70%
CS(=O)(=O)Oc1cccc(Cl)c1C1CC(c2csc(C3CCN(C(=O)COc4ccnc(C(F)(F)F)n4)CC3)n2)=NO1 (stereo not drawn) [Compound 21, 3-chloro-2-(3-(2-(1-(2-((2-(trifluoromethyl)pyrimidin-4-yl)oxy)acetyl)piperidin-4-yl)thiazol-4-yl)-4,5-dihydroisoxazol-5-yl)phenyl methanesulfonate] | ≥ 70%
CSc1nccnc1OCC(=O)N1CCC(c2nc(C3=NOC(c4c(F)cccc4Br)C3)cs2)CC1 (stereo not drawn) [Compound 141, 1-(4-(4-(5-(2-bromo-6-fluorophenyl)-4,5-dihydroisoxazol-3-yl)thiazol-2-yl)piperidin-1-yl)-2-((3-(methylthio)pyrazin-2-yl)oxy)ethan-1-one] | ≥ 70%
COc1ccnc(OCC(=O)N2CCC(c3nc(C4=NOC(c5c(F)cccc5Br)C4)cs3)CC2)n1 (stereo not drawn) [Compound 44, 1-(4-(4-(5-(2-bromo-6-fluorophenyl)-4,5-dihydroisoxazol-3-yl)thiazol-2-yl)piperidin-1-yl)-2-((4-methoxypyrimidin-2-yl)oxy)ethan-1-one] | ≥ 70%
O=C(CSc1ccc(C(F)(F)F)nn1)N1CCC(c2nc(C3=NOC(c4c(F)cccc4Br)C3)cs2)CC1 (stereo not drawn) [Compound 151, 1-(4-(4-(5-(2-bromo-6-fluorophenyl)-4,5-dihydroisoxazol-3-yl)thiazol-2-yl)piperidin-1-yl)-2-((6-(trifluoromethyl)pyridazin-3-yl)thio)ethan-1-one] | ≥ 70%
CS(=O)(=O)Oc1ccc(F)c2c1COC(c1csc(C3CCN(C(=O)COc4ccnc(C(F)(F)F)n4)CC3)n1)OC2 (stereo not drawn) [Compound 156, 9-fluoro-3-(2-(1-(2-((2-(trifluoromethyl)pyrimidin-4-yl)oxy)acetyl)piperidin-4-yl)thiazol-4-yl)-1,5-dihydrobenzo[e][1,3]dioxepin-6-yl methanesulfonate] | ≥ 70%
COc1nc(OC)nc(OCC(=O)N2CCC(c3nc(C4=NOC(c5c(F)cccc5F)C4)cs3)CC2)n1 (stereo not drawn) [Compound 109, 1-(4-(4-(5-(2,6-difluorophenyl)-4,5-dihydroisoxazol-3-yl)thiazol-2-yl)piperidin-1-yl)-2-((4,6-dimethoxy-1,3,5-triazin-2-yl)oxy)ethan-1-one] | ≥ 70%
O=C(COc1nccc(C(F)(F)F)n1)N1CCC(c2nc(C3=NOC(c4c(F)cccc4F)C3)cs2)CC1 (stereo not drawn) [Compound 50, 1-(4-(4-(5-(2,6-difluorophenyl)-4,5-dihydroisoxazol-3-yl)thiazol-2-yl)piperidin-1-yl)-2-((4-(trifluoromethyl)pyrimidin-2-yl)oxy)ethan-1-one] | ≥ 70%
COc1cncc(OCC(=O)N2CCC(c3nc(C4=NOC(c5c(Cl)ccc(F)c5F)C4)cs3)CC2)n1 (stereo not drawn) [Compound 104, 1-(4-(4-(5-(6-chloro-2,3-difluorophenyl)-4,5-dihydroisoxazol-3-yl)thiazol-2-yl)piperidin-1-yl)-2-((6-methoxypyrazin-2-yl)oxy)ethan-1-one] | ≥ 70%
O=C(COc1ccnc(C(F)(F)F)n1)N1CCC(c2nc(C3=NOC(c4c(F)cccc4Cl)C3)cs2)CC1 (stereo not drawn) [Compound 20, 1-(4-(4-(5-(2-chloro-6-fluorophenyl)-4,5-dihydroisoxazol-3-yl)thiazol-2-yl)piperidin-1-yl)-2-((2-(trifluoromethyl)pyrimidin-4-yl)oxy)ethan-1-one] | ≥ 70%
O=C(COc1cc(C(F)(F)F)ncn1)N1CCC(c2nc(C3=NOC(c4c(F)cccc4F)C3)cs2)CC1 (stereo not drawn) [Compound 12, 1-(4-(4-(5-(2,6-difluorophenyl)-4,5-dihydroisoxazol-3-yl)thiazol-2-yl)piperidin-1-yl)-2-((6-(trifluoromethyl)pyrimidin-4-yl)oxy)ethan-1-one] | ≥ 70%
COc1ncc(OCC(=O)N2CCC(c3nc(C4=NOC(c5c(F)cccc5F)C4)cs3)CC2)cn1 (stereo not drawn) [Compound 139, 1-(4-(4-(5-(2,6-difluorophenyl)-4,5-dihydroisoxazol-3-yl)thiazol-2-yl)piperidin-1-yl)-2-((2-methoxypyrimidin-5-yl)oxy)ethan-1-one] | ≥ 70%
CSc1nccnc1OCC(=O)N1CCC(c2nc(C3=NOC(c4c(Cl)ccc(F)c4F)C3)cs2)CC1 (stereo not drawn) [Compound 147, 1-(4-(4-(5-(6-chloro-2,3-difluorophenyl)-4,5-dihydroisoxazol-3-yl)thiazol-2-yl)piperidin-1-yl)-2-((3-(methylthio)pyrazin-2-yl)oxy)ethan-1-one] | ≥ 70%
COc1nc(OC)nc(OCC(=O)N2CCC(c3nc(C4=NOC(c5c(Cl)cccc5C(F)(F)F)C4)cs3)CC2)n1 (stereo not drawn) [Compound 105, 1-(4-(4-(5-(2-chloro-6-(trifluoromethyl)phenyl)-4,5-dihydroisoxazol-3-yl)thiazol-2-yl)piperidin-1-yl)-2-((4,6-dimethoxy-1,3,5-triazin-2-yl)oxy)ethan-1-one] | ≥ 70%
N#Cc1cccc(Cl)c1C1CC(c2csc(C3CCN(C(=O)COc4cnc(C(F)(F)F)cn4)CC3)n2)=NO1 (stereo not drawn) [Compound 93, 3-chloro-2-(3-(2-(1-(2-((5-(trifluoromethyl)pyrazin-2-yl)oxy)acetyl)piperidin-4-yl)thiazol-4-yl)-4,5-dihydroisoxazol-5-yl)benzonitrile] | ≥ 70%
CS(=O)(=O)Oc1cccc(Cl)c1C1CC(c2csc(C3CCN(C(=O)COc4nccc(C(F)(F)F)n4)CC3)n2)=NO1 (stereo not drawn) [Compound 46, 3-chloro-2-(3-(2-(1-(2-((4-(trifluoromethyl)pyrimidin-2-yl)oxy)acetyl)piperidin-4-yl)thiazol-4-yl)-4,5-dihydroisoxazol-5-yl)phenyl methanesulfonate] | ≥ 70%
COc1cncc(OCC(=O)N2CCC(c3nc(C4=NOC(c5c(Cl)cccc5Cl)C4)cs3)CC2)n1 (stereo not drawn) [Compound 99, 1-(4-(4-(5-(2,6-dichlorophenyl)-4,5-dihydroisoxazol-3-yl)thiazol-2-yl)piperidin-1-yl)-2-((6-methoxypyrazin-2-yl)oxy)ethan-1-one] | ≥ 70%

Source: patent US12471596B2 (priority 2019, dated 2025)
